# Laboratory results: ChEMBL document CHEMBL1201862, “PubChem BioAssay data set” (2004)
#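 Tested at 5 concentrations; 48 h exposure; 96-well plates; endpoints linearly interpolated, else capped at highest concentration. The concentration for 50% growth inhibition is given as GI50.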 Activity calls are given as the source filed them. No stated cut-off is given here; in the data, active = GI50 up to about 1.1 µM and inactive = higher.
# Tests used:
# Test in all cases: NCI tumour cell line growth inhibition, 48 h
# A498 = tested on: A498
# A549 = tested on: A549
# ACHN = tested on: ACHN
# DU-145 = tested on: DU-145
# EKVX = tested on: EKVX
# HCC 2998 = tested on: HCC 2998
# HL-60 = tested on: HL-60
# HOP-92 = tested on: HOP-92
# Hs-578T = tested on: Hs-578T
# KM12 = tested on: KM12
# MCF7 = tested on: MCF7
# NCI-H226 = tested on: NCI-H226
# OVCAR-4 = tested on: OVCAR-4
# OVCAR-5 = tested on: OVCAR-5
# PC-3 = tested on: PC-3
# SF-539 = tested on: SF-539
# SK-OV-3 = tested on: SK-OV-3
# TK-10 = tested on: TK-10
# UACC-257 = tested on: UACC-257
# UACC-62 = tested on: UACC-62
SMILES,GI50 (A498),GI50 (A549),GI50 (ACHN),GI50 (DU-145),GI50 (EKVX),GI50 (HCC 2998),GI50 (HL-60),GI50 (HOP-92),GI50 (Hs-578T),GI50 (KM12),GI50 (MCF7),GI50 (NCI-H226),GI50 (OVCAR-4),GI50 (OVCAR-5),GI50 (PC-3),GI50 (SF-539),GI50 (SK-OV-3),GI50 (TK-10),GI50 (UACC-257),GI50 (UACC-62)
Cn1/c(=N\N=C2\C=C3CCCCC3(C)CC2)sc2ccccc21 (stereo not given),> 100 µM (inactive),> 100 µM (inactive),> 100 µM (inactive),> 100 µM (inactive),> 100 µM (inactive),> 100 µM (inactive),> 100 µM (inactive),> 100 µM (inactive),> 100 µM (inactive),> 100 µM (inactive),> 100 µM (inactive),> 100 µM (inactive),> 100 µM (inactive),> 100 µM (inactive),> 100 µM (inactive),> 100 µM (inactive),> 100 µM (inactive),> 100 µM (inactive),> 100 µM (inactive),> 100 µM (inactive)
O=C(c1ccccc1)c1c(-c2ccccc2)n(-c2ccccc2)[nH]c(=O)c1=O,> 100 µM (inactive),> 100 µM (inactive),22.2 µM (inactive),> 100 µM (inactive),55.5 µM (inactive),> 100 µM (inactive),32.2 µM (inactive),31.2 µM (inactive),21.6 µM (inactive),54.3 µM (inactive),46.7 µM (inactive),16.5 µM (inactive),32.6 µM (inactive),> 100 µM (inactive),18.9 µM (inactive),20.2 µM (inactive),34.2 µM (inactive),42.5 µM (inactive),70.1 µM (inactive),12.3 µM (inactive)
COC(=O)C1=NN2c3ccccc3CN([C@@H](C)c3ccccc3)C(=O)[C@H]2[C@@H]1C,> 100 µM (inactive),29.4 µM (inactive),39 µM (inactive),47.5 µM (inactive),27.7 µM (inactive),24.7 µM (inactive),0.769 µM (active),44.7 µM (inactive),67.1 µM (inactive),31 µM (inactive),36.3 µM (inactive),25.9 µM (inactive),28.9 µM (inactive),37.6 µM (inactive),23.8 µM (inactive),40.5 µM (inactive),62.5 µM (inactive),50.1 µM (inactive),26.9 µM (inactive),40.6 µM (inactive)
CC(C)/C=N\n1c(N)c(C#N)c(C#N)c1C(C)C,17.5 µM (inactive),25.2 µM (inactive),20.3 µM (inactive),35.6 µM (inactive),20.4 µM (inactive),13.4 µM (inactive),26.1 µM (inactive),13 µM (inactive),20.4 µM (inactive),27 µM (inactive),38.5 µM (inactive),14.7 µM (inactive),18.2 µM (inactive),21.7 µM (inactive),17.1 µM (inactive),18.9 µM (inactive),45.1 µM (inactive),22.5 µM (inactive),14.7 µM (inactive),12.3 µM (inactive)
O=C1OC[C@@H]2[C@@H](O)CCCCCN12,> 100 µM (inactive),> 100 µM (inactive),> 100 µM (inactive),> 100 µM (inactive),> 100 µM (inactive),> 100 µM (inactive),> 100 µM (inactive),> 100 µM (inactive),> 100 µM (inactive),> 100 µM (inactive),> 100 µM (inactive),> 100 µM (inactive),> 100 µM (inactive),> 100 µM (inactive),> 100 µM (inactive),> 100 µM (inactive),> 100 µM (inactive),> 100 µM (inactive),> 100 µM (inactive),> 100 µM (inactive)
CCCCCC(=O)N[C@@H](c1ccccc1)C(O)C(=O)OC1C[C@@]2(O)C(OC(=O)c3ccccc3)C3[C@](C)(C(=O)[C@H](O)C(=C1C)C2(C)C)C(OC1OCC(O)C(O)C1O)C[C@H]1OC[C@@]31OC(C)=O (stereo not given in full),25.5 µM (inactive),7.24 µM (inactive),> 89.1 µM (inactive),2.88 µM (inactive),> 64.7 µM (inactive),1.6 µM (inactive),0.542 µM (active),24.6 µM (inactive),0.198 µM (active),1.21 µM (inactive),1.02 µM (active),> 100 µM (inactive),> 100 µM (inactive),> 20.7 µM (inactive),1.29 µM (inactive),0.494 µM (active),3.04 µM (inactive),63.2 µM (inactive),> 100 µM (inactive),3.57 µM (inactive)
COc1cc([C@@H]2OC[C@@H]3C(c4cc(OC)c5c(c4)OCO5)OC[C@@H]32)cc(OC)c1OC (stereo not given in full),> 100 µM (inactive),> 100 µM (inactive),> 100 µM (inactive),> 100 µM (inactive),> 100 µM (inactive),> 100 µM (inactive),> 10 µM (inactive),> 100 µM (inactive),> 100 µM (inactive),> 100 µM (inactive),> 100 µM (inactive),> 100 µM (inactive),92.5 µM (inactive),> 100 µM (inactive),50.1 µM (inactive),> 100 µM (inactive),> 100 µM (inactive),> 100 µM (inactive),> 100 µM (inactive),49.1 µM (inactive)
